Measurements from the NIST ThermoML archive (doi:10.1021/je9002515).

Test: xn = mol fraction of the nth substance listed
Details: 101 kPa, Liquid, Alternating current cell with electrodes

CNC(C)=O [N-methylacetamide] + CC(=O)N(C)C
electrical conductivity [S/m]
Details	303.15 K	313.15 K	323.15 K	333.15 K	343.15 K	353.15 K	363.15 K	373.15 K	383.15 K	393.15 K
x1 = 0.1041	0.0107	0.0131	0.0151	0.0175	0.0202	0.0234	0.0269	0.0305	0.0344	0.0396
x1 = 0.2077	0.0173	0.0201	0.023	0.0261	0.0299	0.0349	0.0413	0.049	0.0567	0.0641
x1 = 0.3056	0.0162	0.0192	0.0229	0.0273	0.0331	0.0403	0.0495	0.06	0.0708	0.081
x1 = 0.4019	0.0203	0.0241	0.0285	0.0335	0.0394	0.0464	0.0548	0.0646	0.075	0.0851
x1 = 0.506	0.0239	0.0287	0.034	0.0397	0.0459	0.0532	0.0619	0.0714	0.0813	0.0907
x1 = 0.6088	0.0215	0.0262	0.0315	0.0373	0.0436	0.051	0.0597	0.0702	0.0816	0.0934
x1 = 0.6985	0.0328	0.04	0.0485	0.0584	0.0688	0.0798	0.0922	0.106	0.119	0.131
x1 = 0.7974	0.0314	0.039	0.0477	0.0571	0.0666	0.076	0.0854	0.0948	0.105	0.118
x1 = 0.9001	0.0329	0.0421	0.0528	0.0645	0.0778	0.0929	0.11	0.127	0.146	0.167
x1 = 1	0.0324	0.0447	0.0614	0.0775	0.105	0.129	0.165	0.192	0.219	0.247
